Publication PMC6271639, “Lycodine-Type Alkaloids from Lycopodiastrum casuarinoides and Their Acetylcholinesterase Inhibitory Activity” (Molecules, 2014)

What was measured:
AChE = conditions: previously reported ref 8, 13, 21; cited from earlier work
[1] = biological target: T1, AChE (EC3.1.1.7, Sigma product no. C2888) (Electrophorus electricus, UniProt O42275); assay: AChE inhibition by modified Ellman's method in 96-well microplates; type: biochemical; conditions: for AChE inhibitory activity in words: qualitative statement
T1 construct: purchased Sigma (St. Louis, MO, USA) C2888
Procedure: The isolated lycodine-type alkaloids 1–14 were evaluated for their AChE inhibiting activity by Ellman’s method in 96-well microplates.
AChE (EC3.1.1.7, Sigma product no. C2888), acetylthiocholine iodide (ATCI), 5,5'-dithiobis [2-nitrobenzoic acid] (DTNB) and huperzine A (purity 98%) were purchased from Sigma (St. Louis, MO, USA).
Briefly, 0.1 M sodium phosphate buffer (140 µL, pH = 8.0), sample solution (20 µL) and enzyme solution (15 µL) were mixed and incubated at 4 °C for 20 min. Ten µL of 0.01 M DTNB was added and the reaction was then started by adding 0.075 M ATCI (10 µL). […] Blanks were set up by adding 20 µL buffer solutions instead of 20 µL sample solution. Experiment control was set up by adding 15 µL buffer solutions instead of 15 µL enzyme solution in order to deduct the sample background. All reactions were carried out thrice.

T1 sequence (O42275 24-633): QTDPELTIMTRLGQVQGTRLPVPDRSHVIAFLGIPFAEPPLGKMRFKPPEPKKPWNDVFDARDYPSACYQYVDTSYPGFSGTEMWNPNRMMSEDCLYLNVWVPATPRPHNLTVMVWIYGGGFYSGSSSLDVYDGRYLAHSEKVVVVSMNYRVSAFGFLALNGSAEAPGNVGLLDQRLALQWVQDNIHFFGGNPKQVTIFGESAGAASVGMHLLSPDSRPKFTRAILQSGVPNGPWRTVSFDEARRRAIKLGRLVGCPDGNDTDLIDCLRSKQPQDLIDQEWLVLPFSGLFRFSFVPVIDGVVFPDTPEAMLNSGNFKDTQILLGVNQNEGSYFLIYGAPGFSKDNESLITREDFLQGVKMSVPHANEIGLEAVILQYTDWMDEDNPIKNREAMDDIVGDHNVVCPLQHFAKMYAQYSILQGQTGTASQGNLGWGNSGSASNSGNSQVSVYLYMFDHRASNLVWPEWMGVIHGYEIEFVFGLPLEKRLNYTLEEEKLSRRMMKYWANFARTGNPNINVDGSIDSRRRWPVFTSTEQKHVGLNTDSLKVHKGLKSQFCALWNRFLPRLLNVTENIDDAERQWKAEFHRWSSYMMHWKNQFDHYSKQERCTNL

Structure (SMILES) | IC50 (AChE) [µM] | IC50 [1] [µM] | AChE inhibitory activity in words [1]
C=C[C@@H]1[C@H]2C=C(CO)C[C@]1(N)c1ccc(=O)[nH]c1C2 [Compound 13, lycoparin C] | 25 | 23.9 ± 2.2 | significant inhibitory activity
C=CC1C2C=C(CO)CC1(NC)c1ccc(=O)[nH]c1C2 (stereo not drawn) [Compound 10, casuarinine E] |  | > 250 | 
C=CC1C2C=C(C)CC1(NC)c1ccc(=O)[nH]c1C2 (stereo not drawn) [Compound 7, N-demethylhuperzinine] |  | 1.9 ± 0.2 | 
CC1=C[C@H]2Cc3[nH]c(=O)ccc3[C@]3(C1)NCCC[C@H]23 [Compound 9, huperzine B] | 19.3 | 20.2 ± 1.3 | significant inhibitory activity
C=CC1C2C=C(C)CC1(N(C)C)c1ccc(=O)[nH]c1C2 (stereo not drawn) [Compound 5, huperzinine] |  |  | very weak activity
